Values joined by “and” are separate entries in the source; they are usually repeats but may differ in a detail not shown here. Identical values can stand only once. Positions of bridges follow the written chain, without caps; N, C: chain ends. No end group written: not given here.
Assays:
ERK 1/2 kinases [1] = conditions: ATDC5 cells, mouse chondrogenic cell line; cited from earlier work
[2] = in vivo; cited from earlier work
[3] = tested on: cyclic GMP (cGMP) in chondrocytes; conditions: CNP versus ANP; cited from earlier work
[4] = tested on: human osteoblast cells (ATCC number CRL-11372); experiment: Cell Titer 96 Aqueous One Solution (MTS) cell proliferation assay of human osteoblasts; format: cell-based; conditions: for enhancement of human osteoblast proliferation compared with controls: absorbance at 490 nm at day 7
Protocol: A cell line (ATCC number CRL-11372) of human osteoblast cells was purchased from the American Type Culture […] (ATCC, Manassas, Va.). Propagation of the human osteoblast cells was in a 1:1 mixture of Ham's F12 Medium and Dulbecco's Modified Eagles Medium (DMEM) with 2.5 mM L-glutamine without phenol red. Base medium was supplemented with 0.3 mg/mL of Geneticin (G418) antibiotic and 10% fetal bovine serum (Harris S A, et al. 1995 Developmental and characterization of a conditionally immortalized human fetal osteoblastic cell line. J Bone Miner Res 10:178-186). Cells were incubated at a temperature of 34° C. in 5% CO2 at which they have rapid cell division, doubling every 36 hours (Harris S A, et al. 1995 Developmental and characterization of a conditionally immortalized human fetal osteoblastic cell line. J Bone Miner Res 10:178-186). […] Cells were dispensed into new flasks with subculturing every 6-8 days. The medium was changed every 3 days.
After the osteoblast cells were subcultured for 24 h, ˜5000 cells in 200 μL of the above media were then seeded (day 1) into 96-well plates (Nuclon, Roskilde, Denmark). After overnight incubation at 34° C. in 5% CO2, the media was removed (day 2), and 50 μL of fresh media was added to control wells, blank wells (with no cells inside), and 50 μL of media with 10 picomolar (pM), 100 pM, 1 nanomolar (nM), or 10 nM of CNP or vessel dilator. At day 5, in these experiments, 50 μL of fresh media was added to the controls, blank wells, and 50 μL of media with 1 nM, 10 nM, 10 pM, and 100 pM of the respective natriuretic hormones for a total volume of 100 μL of media in each well. At day 7, 20 μL of Cell Titer 96® Aqueous One Solution (Promega Corporation, Madison, Wis.) was added to each well containing 1004 of medium and allowed to incubate for 4 h in 5% CO2 atmosphere before recording absorbance at 490 nm with a 96-well plate reader (Cory A H, et al. 1991 Use of aqueous soluble tetrazolium/formazan assay for growth assays in culture. Cancer Commun 3:207-212). There were 15 observations of vessel dilator at each concentration and 16 observations of CNP at each concentration. The peptide hormones used in this investigation were from Phoenix Pharmaceuticals, Inc., Burlingame, Calif.
Cell proliferation of human osteoblasts was examined with the Cell Titer 96 Aqueous One Solution cell proliferation assay (Promega Corp.). This colorimetric method determines the viable cells' proliferation by recording the absorption at 490 nm with a 96-well plate reader (Cory A H, et al. 1991 Use of aqueous soluble tetrazolium/formazan assay for growth assays in culture. Cancer Commun 3:207-212) after incubating the respective cells at 37° C. for 4 h in a 5% CO2 atmosphere.
Approximately 5000 human osteoblast cells were in each well. The proliferation assay detects the number of viable cells in proliferation using a tetrazolium compound (3-[4,5-dimethylthiazol-2-yl]-5-[3-carboxymethoxyphenyl]-2-[4-sulfophenyl]-2H-tetrazolium, inner salt; MTS) and an electron coupling reagent [phenazine ethosulfate (PES)]. PES has enhanced chemical stability, which allows it to be combined with MTS to form a stable solution (Cory A H, et al. 1991 Use of aqueous soluble tetrazolium/formazan assay for growth assays in culture. Cancer Commun 3:207-212). The MTS tetrazolium compound (Owen's reagent) is bioreduced by living cells into a colored formazan product that is measurable at […] in a spectrophotometer, thereby eliminating any nonviable (i.e. dead) cells that would not be proliferating (Cory A H, et al. 1991 Use of aqueous soluble tetrazolium/formazan assay for growth assays in culture. Cancer Commun 3:207-212). This method measure only viable cells' proliferation as dead cells are unable to reduce the MTS tetrazolium compound to a colored formazan product.
All data are expressed as mean±SEM. Statistical significance was determined by the Mann-Whitney test (also called Wilcoxon rank-sum test) for different sample sizes. […]

[5] = duration of biologic effects of natriuretic peptides; format: in vivo, human; conditions: versus CNP
Protocol: (§1) CNP and ANP are ring-structured natriuretic peptides with very short half-lives of <3 min in the circulation (Kalra P R, et al. 2001 The role of C-natriuretic peptide in cardiovascular medicine. Eur Heart J 22:997-1007, Teixeira C C, et al. 2008 Nitric oxide, C-type natriuretic peptide and cGMP as regulators of endochondral ossification. Dev Biol 319:171-178; Nakao K, et al. 1986 The pharmacokinetics of α-human natriuretic polypeptide in healthy subjects. Eur J Clin Pharmacol 31:101-103; Yandle T G, et al. 1986 Metabolic clearance rate and plasma half life of alpha-human atrial natriuretic peptide in man. Life Sci 38:1827-1833). Their biologic effects last for <30 min. […] J Pharmacol Exp Ther 282:603-608) and its biologic effects last >6 h (Vesely D L, et al. 1994 Three peptides from the atrial natriuretic factor prohormone amino terminus lower blood pressure and produce diuresis, natriuresis, and/or kaliuresis in humans. Circulation 90:1129-1140).
(§2) The gene for CNP is expressed in bone (Mericq V, et al. 2000 Regulation of fetal rat bone growth by C-type natriuretic peptide and cGMP. Pediatr Res 47:189-193) to allow it to be an autocrine/paracrine regulator of bone. […] Life Sci 38:1827-1833; Ackerman B H, et al. 1997 Disposition of vessel dilator and long-acting natriuretic peptide in healthy humans after a one-hour infusion. […]

ERK 1/2 kinases [6] = conditions: cited from earlier work
[7] = circulatory half-life of natriuretic peptides; format: in vivo, human; conditions: vessel dilator versus CNP
Protocol: as §1, §2

MEK 1/2 kinases = conditions: proliferating prostate cancer cells; cited from earlier work
[8] = in vivo; cited from earlier work; remark: listed apart in the source

Molecule: Nc1nc2c(nc(Br)n2[C@@H]2O[C@@H]3COP(=O)(O)O[C@H]3[C@H]2O)c(=O)[nH]1 [8-bromo cGMP]
- effect on mitogen- (fibroblast growth factor) stimulated ERK 1/2 kinases' phosphorylation (ERK 1/2 kinases [1]): inhibit

Molecule: BNP: natriuretic peptide named with CNP and ANP, biologic effects less than 30 minutes [reference compound]
- duration of biologic effects [2]: less than 30 min

Molecule: CNP: 22 amino acid peptide having a 17-amino acid ring, generated from the natriuretic peptide precursor C gene (GLSKGCFGLKLDRIGSMSGLGC; disulfide 6-22 (inferred); UniProt P23582 105-126, looked up) [reference compound]
- effect on mitogen- (fibroblast growth factor) stimulated ERK 1/2 kinases' phosphorylation (ERK 1/2 kinases [1]): inhibit
- stimulation of cGMP in chondrocytes relative to ANP [3]: 10 fold
- enhancement of human osteoblast proliferation compared with controls ([4]; 10 pM peptide): no significant enhancement
- enhancement of human osteoblast proliferation compared with controls ([4]; 10 nM peptide): 27%

Molecule: Vessel dilator: linear natriuretic peptide synthesized by the ANP gene; cardiac hormone, molecular weight 3878.31 (EVVPPQVLSEPNEEAGAALSPLPEVPPWTGEVSPAQR; Vessel dilator; UniProt P01160 56-92, looked up)
- duration of biologic effects [2]: > 6 h
- biologic effects longer than CNP, ANP or BNP [5]: 12 times and > 12 times
- effect on mitogen (epidermal growth factor, EGF) stimulation of ERK 1/2 kinases (ERK 1/2 kinases [6]; EGF stimulation): completely blocks
- inhibition of the phosphorylation of basal activity of ERK 1/2 kinases (ERK 1/2 kinases [6]; proliferating cells, basal activity): 96%
- circulating half-life longer than CNP [7]: 36 fold
- enhancement of human osteoblast proliferation compared with controls ([4]; 10 pM peptide): 8%
- enhancement of human osteoblast proliferation compared with controls ([4]; 100 pM peptide): 7%
- enhancement of human osteoblast proliferation compared with controls ([4]; 1 nM peptide): 6%
- enhancement of human osteoblast proliferation compared with controls ([4]; 10 nM peptide): 8%
- stimulates osteoblasts at lower concentrations than CNP ([4]; compared with CNP): 1000
- inhibition of activation, i.e. phosphorylation, of MEK 1/2 kinases (MEK 1/2 kinases): 98%
- circulatory half-life [8]: 1.78 h
- duration of biologic effect [8]: > 6 h

— patent publication US9956267B2, “Method of treating skeletal dysplasias using vessel dilator” (University of South Florida, priority 2010, dated 2018)
